Results reported in patent EP0590885B1, “Antibiotic carbapenem compounds” (ZENECA LIMITED, priority 1992, dated 1994).
≈ marks a conversion by molar mass, not a printed value.

Columns and labels:
Assay in all cases: MIC by agar-dilution technique, Diagnostic Sensitivity Test
Type in all cases: cell-based
Enterobacter cloacae 108 = settings: inoculum size 10^4 CFU/spot
Description: (§1) The following results were obtained for representative compounds on a standard in vitro test system using Diagnostic Sensitivity Test. The antibacterial activity is described in terms of the minimum inhibitory concentration (MIC) determined by the agar-dilution technique with an inoculum size of 10^4 CFU/spot.

E. coli TEM = settings: Escherichia coli
Description: as §1

[1] = test system: Enterobacter cloacae -029; settings: inoculum size 10^4 CFU/spot
Description: as §1

S. aureus 147N = settings: Staphylococcus aureus, inoculum size 10^4 CFU/spot
Description: as §1

SMILES | MIC (Enterobacter cloacae 108) | MIC (E. coli TEM) | MIC [1] | MIC (S. aureus 147N)
C[C@@H](O)[C@H]1C(=O)N2C(C(=O)O)=C(S[C@@H]3CN[C@H](C(=O)Nc4cccc(/C=C/C(=O)O)c4)C3)[C@H](C)[C@H]12 [Example 1, (1R,5S,6S,8R,2'S,4'S)-2-(2-(3-(E-2-Carboxy-1-ethenyl)phenylcarbamoyl)pyrrolidin-4-ylthio)-6-(1-hydroxyethyl)-1-methylcarbapenem-3-carboxylic acid] | 2 µg/mL (≈ 3.99 µM) | 0.03 µg/mL (≈ 0.0598 µM) | 0.13 µg/mL (≈ 0.259 µM) | 0.13 µg/mL (≈ 0.259 µM)
C[C@@H](O)[C@H]1C(=O)N2C(C(=O)O)=C(S[C@@H]3CN[C@H](C(=O)Nc4cc(/C=C/C(=O)O)ccc4O)C3)[C@H](C)[C@H]12 [Example 2, (1R,5S,6S,8R,2'S,4'S)-2-(2-(3-(E-2-Carboxy-1-ethenyl)-6-hydroxyphenylcarbamoyl)pyrrolidin-4-ylthio)-6-(1-hydroxyethyl)-1-methylcarbapenem-3-carboxylic acid] | 4 µg/mL (≈ 7.73 µM) | 0.06 µg/mL (≈ 0.116 µM) | 0.25 µg/mL (≈ 0.483 µM) | 0.25 µg/mL (≈ 0.483 µM)
C[C@@H](O)[C@H]1C(=O)N2C(C(=O)O)=C(S[C@@H]3CN[C@H](C(=O)Nc4cccc(OCC(=O)O)c4)C3)[C@H](C)[C@H]12 [Example 3, (1R,5S,6S,8R,2'S,4'S)-2-(2-(3-Carboxymethoxyphenylcarbamoyl)pyrrolidin-4-ylthio)-6-(1-hydroxyethyl)-1-methylcarbapenem-3-carboxylic acid] | 1 µg/mL (≈ 1.98 µM) | 0.03 µg/mL (≈ 0.0593 µM) | 0.06 µg/mL (≈ 0.119 µM) | 0.25 µg/mL (≈ 0.495 µM)
C[C@@H](O)[C@H]1C(=O)N2C(C(=O)O)=C(S[C@@H]3CN[C@H](C(=O)Nc4cccc(C(=O)NCC(=O)O)c4)C3)[C@H](C)[C@H]12 [Example 7, (1R,5S,6S,8R,2'S,4'S)-2(2-(3-Carboxymethylaminocarbonylphenylcarbamoyl)-pyrrolidin-4-ylthio)-6-(1-hydroxyethyl)-1-methylcarbapenem-3-carboxylic acid] | 1 µg/mL (≈ 1.88 µM) | 0.03 µg/mL (≈ 0.0563 µM) | 0.13 µg/mL (≈ 0.244 µM) | 0.25 µg/mL (≈ 0.469 µM)
CO/N=C(\C(=O)N[C@@H]1C(=O)N2C(C(=O)O)=C(CSc3nc(=O)c(=O)[nH]n3C)CS[C@H]12)c1csc(N)n1 [ceftriaxone, reference compound] | 32 µg/mL (≈ 57.7 µM) | 0.03 µg/mL (≈ 0.0541 µM) | 0.06 µg/mL (≈ 0.108 µM) | 2 µg/mL (≈ 3.61 µM)
